Assay results from ChEMBL document CHEMBL5236651, “Synthesis and antibacterial activity of novel 2‑fluoro ketolide antibiotics with 11,12‑quinoylalkyl side chains” (2023).
In brackets after ≈: the same amount, converted by molar mass.

What was measured:
Format in all cases: functional
Pseudomonas aeruginosa [1] = test: Antibacterial activity against Pseudomonas aeruginosa 16-11 assessed as inhibition of bacterial growth by CLSI based micro broth double dilution method
Streptococcus pneumoniae [2] = test: Antibacterial activity against erythromycin-sensitive Streptococcus pneumoniae ATCC 49619 assessed as inhibition of bacterial growth by CLSI based micro broth double dilution method
Klebsiella pneumoniae [3] = test: Antibacterial activity against ESBL negative Klebsiella pneumoniae 7 assessed as inhibition of bacterial growth by CLSI based micro broth double dilution method
Enterococcus faecalis [4] = test: Antibacterial activity against vancomycin-sensitive Enterococcus faecalis […] assessed as inhibition of bacterial growth by CLSI based micro broth double dilution method
Streptococcus pyogenes [5] = test: Antibacterial activity against erythromycin-resistant Streptococcus pyogenes 12-1 assessed as inhibition of bacterial growth by CLSI based micro broth double dilution method
Escherichia coli [6] = test: Antibacterial activity against Escherichia coli 16-7 assessed as inhibition of bacterial growth by CLSI based micro broth double dilution method
Enterococcus faecalis [7] = test: Antibacterial activity against vancomycin-resistant Enterococcus faecalis ATCC 51299 assessed as inhibition of bacterial growth by CLSI based micro broth double dilution method
Staphylococcus aureus [8] = test: Antibacterial activity against methicillin-sensitive Staphylococcus aureus 15 assessed as inhibition of bacterial growth by CLSI based micro broth double dilution method
Enterococcus faecalis [9] = test: Antibacterial activity against vancomycin-resistant Enterococcus faecalis ATCC 51575 assessed as inhibition of bacterial growth by CLSI based micro broth double dilution method
Enterococcus faecalis [10] = test: Antibacterial activity against vancomycin-sensitive Enterococcus faecalis 16-6 assessed as inhibition of bacterial growth by CLSI based micro broth double dilution method
Pseudomonas aeruginosa [11] = test: Antibacterial activity against Pseudomonas aeruginosa ATCC 27853 assessed as inhibition of bacterial growth by CLSI based micro broth double dilution method
Streptococcus pyogenes [12] = test: Antibacterial activity against erythromycin-sensitive Streptococcus pyogenes ATCC 19615 assessed as inhibition of bacterial growth by CLSI based micro broth double dilution method
Escherichia coli [13] = test: Antibacterial activity against ESBL-positive Escherichia coli ATCC 35218 assessed as inhibition of bacterial growth by CLSI based micro broth double dilution method
Pseudomonas aeruginosa [14] = test: Antibacterial activity against Pseudomonas aeruginosa PAO1 assessed as inhibition of bacterial growth by CLSI based micro broth double dilution method
Klebsiella pneumoniae [15] = test: Antibacterial activity against ESBL positive Klebsiella pneumoniae ATCC 700603 assessed as inhibition of bacterial growth by CLSI based micro broth double dilution method
Klebsiella pneumoniae [16] = test: Antibacterial activity against ESBL negative Klebsiella pneumoniae 16-2 assessed as inhibition of bacterial growth by CLSI based micro broth double dilution method
Staphylococcus aureus [17] = test: Antibacterial activity against methicillin-sensitive Staphylococcus aureus ATCC 29213 assessed as inhibition of bacterial growth by CLSI based micro broth double dilution method
Streptococcus pneumoniae [18] = test: Antibacterial activity against erythromycin-resistant Streptococcus pneumoniae 12-3 assessed as inhibition of bacterial growth by CLSI based micro broth double dilution method
Staphylococcus aureus [19] = test: Antibacterial activity against methicillin-sensitive Staphylococcus aureus 16-1 assessed as inhibition of bacterial growth by CLSI based micro broth double dilution method
Escherichia coli [20] = test: Antibacterial activity against ESBL-negative Escherichia coli ATCC 25922 assessed as inhibition of bacterial growth by CLSI based micro broth double dilution method
[21] = test system: Staphylococcus epidermidis; test: Antibacterial activity against methicillin-sensitive Staphylococcus epidermidis ATCC 12228 assessed as inhibition of bacterial growth by CLSI based micro broth double dilution method
[22] = test system: Staphylococcus epidermidis; test: Antibacterial activity against methicillin-sensitive Staphylococcus epidermidis 16-4 assessed as inhibition of bacterial growth by CLSI based micro broth double dilution method
Streptococcus pyogenes [23] = test: Potency index, ratio of telithromycin MIC to test compound MIC for antibacterial activity against erythromycin-resistant Streptococcus pyogenes 12-1 assessed as inhibition of bacterial growth by CLSI based micro broth double dilution method
Streptococcus pneumoniae [24] = test: Potency index, ratio of telithromycin MIC to test compound MIC for antibacterial activity against erythromycin-resistant Streptococcus pneumoniae 12-3 assessed as inhibition of bacterial growth by CLSI based micro broth double dilution method

Structure (SMILES) | MIC (Pseudomonas aeruginosa [1]) [µg/mL] | MIC (Streptococcus pneumoniae [2]) [µg/mL] | MIC (Klebsiella pneumoniae [3]) [µg/mL] | MIC (Enterococcus faecalis [4]) [µg/mL] | MIC (Streptococcus pyogenes [5]) [µg/mL] | MIC (Escherichia coli [6]) [µg/mL] | MIC (Enterococcus faecalis [7]) [µg/mL] | MIC (Staphylococcus aureus [8]) [µg/mL] | MIC (Enterococcus faecalis [9]) [µg/mL] | MIC (Enterococcus faecalis [10]) [µg/mL] | MIC (Pseudomonas aeruginosa [11]) [µg/mL] | MIC (Streptococcus pyogenes [12]) [µg/mL] | MIC (Escherichia coli [13]) [µg/mL] | MIC (Pseudomonas aeruginosa [14]) [µg/mL] | MIC (Klebsiella pneumoniae [15]) [µg/mL] | MIC (Klebsiella pneumoniae [16]) [µg/mL] | MIC (Staphylococcus aureus [17]) [µg/mL] | MIC (Streptococcus pneumoniae [18]) [µg/mL] | MIC (Staphylococcus aureus [19]) [µg/mL] | MIC (Escherichia coli [20]) [µg/mL] | also measured
CC[C@H]1OC(=O)[C@@](C)(F)C(=O)[C@H](C)[C@@H](O[C@@H]2O[C@H](C)C[C@H](N(C)C)[C@H]2O)[C@@](C)(OC)C[C@@H](C)C(=O)[C@H](C)[C@H]2N(CCCN(C)c3ccnc4ccccc34)C(=O)O[C@]12C | > 32 | 0.03 (≈ 0.0362 µM) | > 32 | 0.25 (≈ 0.302 µM) | > 32 | > 32 | > 32 | 0.5 (≈ 0.603 µM) | > 32 | > 32 | > 32 | 0.03 (≈ 0.0362 µM) | > 32 | > 32 | > 32 | > 32 | 0.5 (≈ 0.603 µM) | 0.12 (≈ 0.145 µM) | 0.5 (≈ 0.603 µM) | > 32 | MIC [21]: 0.25 µg/mL (≈ 0.302 µM); MIC [22]: 2 µg/mL (≈ 2.41 µM)
CC[C@H]1OC(=O)[C@@](C)(F)C(=O)[C@H](C)[C@@H](O[C@@H]2O[C@H](C)C[C@H](N(C)C)[C@H]2O)[C@@](C)(OC)C[C@@H](C)C(=O)[C@H](C)[C@H]2N(CCCOc3ccnc4ccccc34)C(=O)O[C@]12C | > 32 | 0.25 (≈ 0.306 µM) | > 32 | 0.5 (≈ 0.613 µM) | 16 (≈ 19.6 µM) | > 32 | > 32 | 1 (≈ 1.23 µM) | > 32 | > 32 | > 32 | 0.25 (≈ 0.306 µM) | > 32 | > 32 | > 32 | > 32 | 1 (≈ 1.23 µM) | 32 (≈ 39.2 µM) | 0.5 (≈ 0.613 µM) | > 32 | MIC [21]: 0.5 µg/mL (≈ 0.613 µM); MIC [22]: 1 µg/mL (≈ 1.23 µM)
CC[C@H]1OC(=O)[C@@](C)(F)C(=O)[C@H](C)[C@@H](O[C@@H]2O[C@H](C)C[C@H](N(C)C)[C@H]2O)[C@@](C)(OC)C[C@@H](C)C(=O)[C@H](C)[C@H]2N(CCCn3ccc(=O)c4ccccc43)C(=O)O[C@]12C | > 32 | ≤ 0.016 | > 32 | 0.06 (≈ 0.0735 µM) | > 32 | > 32 | > 32 | 0.12 (≈ 0.147 µM) | > 32 | > 32 | > 32 | 0.03 (≈ 0.0368 µM) | > 32 | > 32 | > 32 | > 32 | 0.12 (≈ 0.147 µM) | 0.25 (≈ 0.306 µM) | 0.12 (≈ 0.147 µM) | 16 (≈ 19.6 µM) | MIC [21]: 0.06 µg/mL (≈ 0.0735 µM); MIC [22]: 0.25 µg/mL (≈ 0.306 µM)
CCCCN(CCCN1C(=O)O[C@]2(C)[C@@H](CC)OC(=O)[C@@](C)(F)C(=O)[C@H](C)[C@@H](O[C@@H]3O[C@H](C)C[C@H](N(C)C)[C@H]3O)[C@@](C)(OC)C[C@@H](C)C(=O)[C@H](C)[C@@H]12)c1ccnc2ccccc12 | 16 (≈ 18.4 µM) | ≤ 0.016 | > 32 | 0.03 (≈ 0.0344 µM) | 2 (≈ 2.3 µM) | 32 (≈ 36.7 µM) | 1 (≈ 1.15 µM) | 0.06 (≈ 0.0689 µM) | 1 (≈ 1.15 µM) | 2 (≈ 2.3 µM) | 32 (≈ 36.7 µM) | 0.015 (≈ 0.0172 µM) | 32 (≈ 36.7 µM) | 16 (≈ 18.4 µM) | 32 (≈ 36.7 µM) | > 32 | 1 (≈ 1.15 µM) | ≤ 0.016 | 0.12 (≈ 0.138 µM) | 32 (≈ 36.7 µM) | Ratio (Streptococcus pyogenes [23]): 32; Ratio (Streptococcus pneumoniae [24]): 4; MIC [21]: 0.12 µg/mL (≈ 0.138 µM); MIC [22]: 0.25 µg/mL (≈ 0.287 µM)
CC[C@H]1OC(=O)[C@@](C)(F)C(=O)[C@H](C)[C@@H](O[C@@H]2O[C@H](C)C[C@H](N(C)C)[C@H]2O)[C@@](C)(OC)C[C@@H](C)C(=O)[C@H](C)[C@H]2N(CCCN(Cc3ccccc3)c3ccnc4ccccc34)C(=O)O[C@]12C | > 32 | ≤ 0.016 | > 32 | 2 (≈ 2.21 µM) | 16 (≈ 17.7 µM) | > 32 | > 32 | 1 (≈ 1.1 µM) | > 32 | > 32 | > 32 | 0.25 (≈ 0.276 µM) | > 32 | > 32 | > 32 | > 32 | 1 (≈ 1.1 µM) | 0.12 (≈ 0.133 µM) | 1 (≈ 1.1 µM) | > 32 | MIC [21]: 0.25 µg/mL (≈ 0.276 µM); MIC [22]: 2 µg/mL (≈ 2.21 µM)
CC[C@H]1OC(=O)[C@H](C)[C@@H](O[C@H]2C[C@@](C)(OC)[C@@H](O)[C@H](C)O2)[C@H](C)[C@@H](O[C@@H]2O[C@H](C)C[C@H](N(C)C)[C@H]2O)[C@](C)(OC)C[C@@H](C)C(=O)[C@H](C)[C@@H](O)[C@]1(C)O [CLARITHROMYCIN] | > 64 | 0.12 (≈ 0.16 µM) | > 64 | 2 (≈ 2.67 µM) | 64 (≈ 85.6 µM) | > 64 | > 64 | 0.25 (≈ 0.334 µM) | > 64 | > 64 | > 64 | 0.03 (≈ 0.0401 µM) | > 64 | > 64 | > 64 | > 64 | 0.25 (≈ 0.334 µM) | > 32 | 0.25 (≈ 0.334 µM) | 32 (≈ 42.8 µM) | MIC [21]: 0.12 µg/mL (≈ 0.16 µM); MIC [22]: 64 µg/mL (≈ 85.6 µM)
CC[C@H]1OC(=O)[C@H](C)C(=O)[C@H](C)[C@@H](O[C@@H]2O[C@H](C)C[C@H](N(C)C)[C@H]2O)[C@](C)(OC)C[C@@H](C)C(=O)[C@H](C)[C@H]2N(CCCCn3cnc(-c4cccnc4)c3)C(=O)O[C@]12C [TELITHROMYCIN] | > 64 | 0.03 (≈ 0.0369 µM) | > 64 | 0.12 (≈ 0.148 µM) | 64 (≈ 78.8 µM) | > 64 | 16 (≈ 19.7 µM) | 0.25 (≈ 0.308 µM) | 16 (≈ 19.7 µM) | 16 (≈ 19.7 µM) | > 64 | 0.06 (≈ 0.0739 µM) | > 64 | > 64 | > 64 | > 64 | 0.25 (≈ 0.308 µM) | 0.06 (≈ 0.0739 µM) | 0.25 (≈ 0.308 µM) | 64 (≈ 78.8 µM) | MIC [21]: 0.25 µg/mL (≈ 0.308 µM); MIC [22]: 1 µg/mL (≈ 1.23 µM)
